As a reminder, the IC50 is the concentration that gives 50% inhibition.

The results in this text go back to patent US7989438B2, “Therapeutic compounds” (Istituto di Ricerche di Biologia Molecolare P. Angeletti SpA, priority 2007, dated 2011).

Where two headings read alike, the source gives them in different places.

The test has as its system HCV subgenomic replication. Nature of the test: Cell based HCV replication assay (subgenomic replicon in Huh-7 cells, NS3 Cell-ELISA). To be noted: activity ranges. The procedure, abridged:
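Huh-7 cells stably carrying the I377neo/NS3-3′/wt subgenomic replicon, seeded at 10^4 cells/well in DMEM/10% FCS and exposed to inhibitor for 96 h. NS3 expression was measured by Cell-ELISA (mAb 10E5/24, alkaline phosphatase, absorbance 405/620 nm), in duplicate. IC50 was fitted to the Hill equation, with background from parental Huh-7 cells.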

Setting [1] is: Table A, Huh-7 replicon cells, 96 hours, read-out: IC50 (nM), Inhibition of HCV subgenomic replication.

As for `COc1ccc2c(c1)CC1CCN(C)CCN(C)S(=O)(=O)NC(=O)c3ccc4c(C5CCCCC5)c-2n(c4c3)C1` (stereo not shown) [Compound A10, 13-cyclohexyl-3-methoxy-17,20-dimethyl-6,7-dihydro-5H-6,10-(ethanoiminoethanoiminothioiminomethano)indolo[2,1-a][2]benzazepin-14-one 16,16-dioxide], the IC50 under setting [1] fell in the range of 25 to 150 nM.

As for `COc1ccc2c(c1)OCC1CCCN(C)CCN(C)S(=O)(=O)NC(=O)c3ccc4c(C5CCCCC5)c-2n(c4c3)C1` (single isomer, unassigned; (+)) [Compound A36, (+)-14-cyclohexyl-3-methoxy-18,21-dimethyl-7,8-dihydro-6H-7,11-(propanoiminoethanoiminothioiminomethano)indolo[1,2-e][1,5]benzoxazocin-15-one 17,17-dioxide], the IC50 under setting [1] is 25 to 150 nM.

Regarding `Cc1cccc2c1OCC1Cn3c-2c(C2CCCCC2)c2ccc(cc23)C(=O)NS(=O)(=O)N(C)CCN(CC(=O)N(C)C)CCN1C` [Example 514, 2-[(7R)-14-cyclohexyl-4,18,24-trimethyl-17,17-dioxido-15-oxo-7,8-dihydro-6H-7,11-(epiminoethanoiminoethanoiminothioiminomethano)-indolo[1,2-e][1,5]benzoxazocin-21-yl]-N,N-dimethylacetamide], for the setting “Table 5, various macrocycles, read-out: IC50* (nM), Inhibition of HCV subgenomic replication”, the IC50 is less than 25 nM.

Take `CN1CCN(C)C2COc3cc(OCc4ccccn4)ccc3-c3c(C4CCCCC4)c4ccc(cc4n3C2)C(=O)NS(=O)(=O)N(C)CC1` [Compound A8, (7R)-14-cyclohexyl-18,21,24-trimethyl-3-(pyridin-2-ylmethoxy)-7,8-dihydro-6H-7,11-(epiminoethanoiminoethanoiminothioiminomethano)indolo[1,2-e][1,5]benzoxazocin-15-one 17,17-dioxide]: the IC50 under setting [1] is less than 25 nM.
